Assays:
[1] = target: T1, DNA topoisomerase 1 (Homo sapiens) (UniProt P11387); test: Inhibition of human topoisomerase 1-mediated relaxation of supercoiled pBR322 at 100 uM by agarose gel electrophoresis
T1 sequence (whole entry): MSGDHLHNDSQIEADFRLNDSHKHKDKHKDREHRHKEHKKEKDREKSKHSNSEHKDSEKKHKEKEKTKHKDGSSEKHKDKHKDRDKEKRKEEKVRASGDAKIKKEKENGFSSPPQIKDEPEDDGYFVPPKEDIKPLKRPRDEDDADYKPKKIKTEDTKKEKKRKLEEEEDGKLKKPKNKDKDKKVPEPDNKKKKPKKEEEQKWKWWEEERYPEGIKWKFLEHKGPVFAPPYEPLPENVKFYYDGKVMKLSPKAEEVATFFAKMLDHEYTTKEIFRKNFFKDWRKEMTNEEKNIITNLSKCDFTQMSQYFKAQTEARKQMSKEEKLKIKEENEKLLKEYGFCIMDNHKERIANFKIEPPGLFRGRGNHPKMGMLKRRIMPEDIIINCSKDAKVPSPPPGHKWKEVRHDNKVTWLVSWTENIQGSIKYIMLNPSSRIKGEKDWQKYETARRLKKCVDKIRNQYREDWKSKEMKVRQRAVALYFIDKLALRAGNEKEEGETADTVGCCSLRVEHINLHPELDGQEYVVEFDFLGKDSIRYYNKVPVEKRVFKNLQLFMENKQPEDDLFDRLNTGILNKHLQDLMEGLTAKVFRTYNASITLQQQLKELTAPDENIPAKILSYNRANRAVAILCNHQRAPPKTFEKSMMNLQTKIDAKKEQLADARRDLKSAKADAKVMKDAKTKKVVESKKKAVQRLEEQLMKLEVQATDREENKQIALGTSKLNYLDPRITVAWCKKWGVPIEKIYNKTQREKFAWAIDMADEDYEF

HCT-15 = test: Cytotoxicity against human HCT15 cells by MTT assay; type: functional, cell-based
K562 = test: Cytotoxicity against human K562 cells by MTT assay; type: functional, cell-based
[2] = target: DNA topoisomerase 2-alpha (Homo sapiens) (UniProt P11388); test: Inhibition of human topoisomerase 2-mediated relaxation of supercoiled pBR322 at 100 uM by agarose gel electrophoresis
[3] = target: DNA topoisomerase 2-alpha (Homo sapiens) (UniProt P11388); test: Inhibition of human topoisomerase 2-mediated relaxation of supercoiled pBR322 at 20 uM by agarose gel electrophoresis
MCF7 = test: Cytotoxicity against human MCF7 cells by MTT assay; type: functional, cell-based
DU-145 = test: Cytotoxicity against human DU145 cells by MTT assay; type: functional, cell-based

DNA topoisomerase 2-alpha (Homo sapiens), sequence (P11388 whole entry): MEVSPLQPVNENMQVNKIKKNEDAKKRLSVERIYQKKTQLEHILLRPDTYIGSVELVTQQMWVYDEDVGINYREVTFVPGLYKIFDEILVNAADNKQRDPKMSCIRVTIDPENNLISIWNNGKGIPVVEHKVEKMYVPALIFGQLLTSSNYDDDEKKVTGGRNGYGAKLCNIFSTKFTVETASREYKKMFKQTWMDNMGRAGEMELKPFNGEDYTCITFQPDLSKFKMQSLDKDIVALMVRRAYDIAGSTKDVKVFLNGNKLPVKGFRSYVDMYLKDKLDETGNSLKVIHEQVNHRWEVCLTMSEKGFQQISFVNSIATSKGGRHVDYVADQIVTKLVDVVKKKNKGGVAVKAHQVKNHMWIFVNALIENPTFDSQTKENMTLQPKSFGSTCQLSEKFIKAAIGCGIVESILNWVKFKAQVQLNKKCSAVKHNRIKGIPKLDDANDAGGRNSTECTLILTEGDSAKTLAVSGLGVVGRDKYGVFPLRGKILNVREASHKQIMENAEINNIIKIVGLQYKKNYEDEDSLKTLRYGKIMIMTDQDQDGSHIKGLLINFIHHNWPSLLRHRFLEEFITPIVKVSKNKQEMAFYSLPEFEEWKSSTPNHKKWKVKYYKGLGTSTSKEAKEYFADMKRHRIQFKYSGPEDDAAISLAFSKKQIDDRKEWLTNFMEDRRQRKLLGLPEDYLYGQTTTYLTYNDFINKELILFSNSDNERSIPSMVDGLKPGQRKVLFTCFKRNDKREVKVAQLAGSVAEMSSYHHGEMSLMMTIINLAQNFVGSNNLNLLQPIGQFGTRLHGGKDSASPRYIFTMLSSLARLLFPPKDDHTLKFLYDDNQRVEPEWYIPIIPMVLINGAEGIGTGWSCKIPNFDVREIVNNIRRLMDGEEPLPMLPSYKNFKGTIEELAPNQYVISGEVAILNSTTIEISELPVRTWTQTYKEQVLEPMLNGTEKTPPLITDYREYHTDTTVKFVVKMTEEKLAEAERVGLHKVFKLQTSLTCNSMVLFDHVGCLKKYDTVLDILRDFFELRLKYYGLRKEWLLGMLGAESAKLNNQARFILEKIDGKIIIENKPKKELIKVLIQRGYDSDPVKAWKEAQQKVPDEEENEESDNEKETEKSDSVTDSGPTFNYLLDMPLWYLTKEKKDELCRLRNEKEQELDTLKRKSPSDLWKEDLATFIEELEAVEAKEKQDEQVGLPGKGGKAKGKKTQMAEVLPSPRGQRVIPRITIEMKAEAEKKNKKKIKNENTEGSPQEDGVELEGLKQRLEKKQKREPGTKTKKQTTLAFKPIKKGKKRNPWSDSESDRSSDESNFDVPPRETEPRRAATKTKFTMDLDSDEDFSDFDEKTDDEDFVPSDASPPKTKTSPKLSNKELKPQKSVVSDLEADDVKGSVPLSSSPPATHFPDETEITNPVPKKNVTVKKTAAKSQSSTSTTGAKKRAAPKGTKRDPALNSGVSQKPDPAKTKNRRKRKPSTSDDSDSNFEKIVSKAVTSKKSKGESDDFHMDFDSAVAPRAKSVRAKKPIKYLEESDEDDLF

| SMILES | inhibition [1] | IC50 (HCT-15) | IC50 (K562) | inhibition [2] | inhibition [3] | IC50 (MCF7) | IC50 (DU-145) |
| --- | --- | --- | --- | --- | --- | --- | --- |
| COc1ccc(C(=O)/C=C/c2ccc(OCC3CS3)cc2)cc1 (stereo not drawn) | 0% | 28.4 µM | 32.5 µM | 31.6% | 15.5% | 11.5 µM | > 50 µM |
| COc1ccc(/C=C/C(=O)c2ccc(OCC3CS3)cc2OCC2CS2)cc1 (stereo not drawn) | 0% | 0.23 µM | 7.6 µM | 61% | 20.8% | 0.49 µM | 1.07 µM |
| COc1ccc(C(=O)/C=C/c2ccc(OCC3CO3)cc2)cc1 (stereo not drawn) | 0% | 30.4 µM | 33.5 µM | 22% | 15.2% | 10.9 µM | 36.9 µM |
| COc1ccc(/C=C/C(=O)c2ccc(OCC(O)CCl)cc2)cc1 (stereo not drawn) | 0% | 20.5 µM | 16.2 µM | 34.9% | 16.3% | 18.4 µM | > 50 µM |
| CC[C@@]1(O)C(=O)OCc2c1cc1n(c2=O)Cc2cc3ccccc3nc2-1 [CAMPTOTHECIN] | – | 0.8 µM | 0.59 µM | – | – | 2.43 µM | 0.61 µM |
| COc1cc(OCC2CO2)ccc1/C=C/C(=O)c1ccc(OCC2CO2)cc1 (stereo not drawn) | 0% | 4.82 µM | 13.7 µM | 28.5% | 14% | 3.64 µM | > 50 µM |
| COc1cc([C@@H]2c3cc4c(cc3[C@@H](O[C@@H]3O[C@@H]5CO[C@@H](C)O[C@H]5[C@H](O)[C@H]3O)[C@H]3COC(=O)[C@H]23)OCO4)cc(OC)c1O [ETOPOSIDE] | – | 2.03 µM | 1.21 µM | 61.9% | 38% | 1.98 µM | 1.44 µM |
| O=C(/C=C/c1ccc(OCC2CO2)cc1)c1ccc(OCC2CO2)cc1 (stereo not drawn) | 0% | 18.5 µM | 7.27 µM | 33.5% | 19.3% | 3.87 µM | > 50 µM |
| O=C(/C=C/c1ccc(OCC2CS2)cc1)c1ccc(OCC2CS2)cc1 (stereo not drawn) | 0% | 12.2 µM | 13.4 µM | 34.6% | 18% | 21.7 µM | > 50 µM |
| COc1ccc(/C=C/C(=O)c2ccc(OCC3CO3)cc2)cc1 (stereo not drawn) | 0% | 27.1 µM | 27.9 µM | 28.8% | 17.6% | 11.6 µM | 43.3 µM |
| COc1ccc(/C=C/C(=O)c2ccc(OCC3CS3)cc2)cc1 (stereo not drawn) | 0% | 10.1 µM | > 50 µM | 31.6% | 14.8% | 23.6 µM | 19.4 µM |
| COc1cccc2c1C(=O)c1c(O)c3c(c(O)c1C2=O)C[C@@](O)(C(=O)CO)C[C@@H]3O[C@H]1C[C@H](N)[C@H](O)[C@H](C)O1 [DOXORUBICIN] | – | 1.25 µM | 1.33 µM | – | – | – | 1.75 µM |
| COc1ccc(C(=O)/C=C/c2ccc(OCC(O)CCl)cc2)cc1 (stereo not drawn) | 0% | 20.6 µM | 29.1 µM | 30.1% | 14% | 29.2 µM | > 50 µM |

Reference: ChEMBL document CHEMBL1641543, “Synthesis and topoisomerase II inhibitory and cytotoxic activity of oxiranylmethoxy- and thiiranylmethoxy-chalcone derivatives” (Bioorg Med Chem Lett, 2011)
